The text below walks through data of patent publication US20100324067A1, “TETRACYCLIC DIPYRANO-COUMARIN COMPOUNDS WITH ANTI-HIV AND ANTI-MYCOBACTERIUM TUBERCULOSIS ACTIVITIES” (priority 2007, published 2010).

Molecules are shown by their SMILES. In brackets after ≈: the same amount, converted by molar mass. Read-outs that look alike come from different tables or passages of the source. A value given as a limit tells only on which side of the number the result lay.

The subject of data set [1] is Mycobacterium tuberculosis H37Rv (ATCC 27294). The data set is described as follows: Microplate Alamar Blue Assay (MABA) in BACTEC 12B medium (TAACF screen). In kind it is cell-based. The settings on record: for IC50: read-out: IC50.
The mark [2] stands for this setting: read-out: anti-TB active compound (MIC90 less than 10 μg/mL), classification.

In the case of `CCCCc1cc(=O)oc2c3c(c4c(c12)OC(C)(C)C=C4)OC(C)CC3=O` (stereo not shown) [Example 36], the IC50 (in general, the concentration at which inhibition is half-maximal) in data set [1] (MABA, H37Rv) was 24.2 µg/mL (≈ 65.8 µM). Further, the MIC90 in data set [1] (MABA, H37Rv, read-out: MIC90) came to 36.6 µg/mL (≈ 99.3 µM).

As for `Cc1cc(=O)oc2cc3c(c(O)c12)C(=O)CC(C)O3` (stereo not shown) [Example 5b-1, benzo[1,2-b:3,4-b′]-dipyranyl-5-hydroxyl-4,8-dimethyl-2,6-dione], the IC50 in data set [1] (MABA, H37Rv) stood at 43.1 µg/mL (≈ 165 µM). Moreover, the MIC90 in data set [1] (MABA, H37Rv, read-out: MIC90) was above 100 µg/mL.

On to `CCCc1cc(=O)oc2c3c(cc(OS(=O)(=O)c4ccc(C)cc4)c12)OC(C)CC3=O` (stereo not shown) [Example 5a-101, 5-(p-tolyl)sulfonyloxy-8-methyl-4-n-propyl-2H-benzo[2,3-f]dipyranyl-2,10-dione], for which the half-inhibitory concentration (IC50) in data set [1] (MABA, H37Rv) was 4.2 µg/mL (≈ 9.49 µM). Moreover, the MIC90 in data set [1] (MABA, H37Rv, read-out: MIC90) is 6.66 µg/mL (≈ 15.1 µM); in data set [1] (setting [2]), below 10 µg/mL.

Turning to `CCCc1c(F)c(=O)oc2c3c(cc(O)c12)OC(C)CC3=O` (stereo not shown) [Example 5a-31, benzo[1,2-b:3,4-b′]-dipyranyl-5-hydroxyl-8-methyl-3-fluoro-4-n-propyl-2,10-dione], the IC50 in data set [1] (MABA, H37Rv) came out at 17 µg/mL (≈ 55.5 µM). Besides, the MIC90 in data set [1] (MABA, H37Rv, read-out: MIC90) was 23.5 µg/mL (≈ 76.6 µM).

Take `CCCc1cc(=O)oc2c3c(c4c(c12)OC(C)(C)C=C4)OC(CN)CC3=O` (stereo not shown): the melting point (commonly the temperature, or range, at which the solid turns liquid) was > 220 °C (dec.).

In the case of `CC1CC(=O)c2c(cc3oc(=O)cc(-c4ccccc4)c3c2O)O1` (stereo not shown) [Example 5b-21, benzo[1,2-b:5,4-b′]-dipyranyl-5-hydroxyl-8-methyl-4-phenyl-2,6-dione], the IC50 in data set [1] (MABA, H37Rv) turned out to be 14.9 µg/mL (≈ 46.1 µM). Moreover, in data set [1] (MABA, H37Rv, read-out: MIC90), the MIC90 worked out at 21.3 µg/mL (≈ 66.1 µM).

In the case of `CCCCC1C=Cc2c3c(c4oc(=O)c(F)c(CCC)c4c2O1)C(=O)CC(C)O3` (stereo not shown), the melting point was in the range of 119 to 121 °C.

`CCCc1cc(=S)oc2c3c(cc(OS(=O)(=O)c4ccc(C)cc4)c12)OC(C)CC3=O` (stereo not shown) [Example 5a-102, 5-(p-tolyl)sulfonyloxy-8-methyl-4-n-propyl-2-thio-2H-benzo[2,3-f]dipyranyl-2,10-dione]: the IC50 in data set [1] (MABA, H37Rv) amounted to 5.48 µg/mL (≈ 12 µM). The MIC90 in data set [1] (MABA, H37Rv, read-out: MIC90) was 6.24 µg/mL (≈ 13.6 µM); in data set [1] (setting [2]), below 10 µg/mL.

In turn, `CCCc1cc(=S)oc2c3c(c4c(c12)OC(C)(C)C=C4)OC(C)CC3=O` (stereo not shown) came in with a melting point of 139 to 141 °C.

Turning to `CCCc1c(Cl)c(=O)oc2c3c(c4c(c12)OC(CCC)C=C4)OC(C)CC3=O` (stereo not shown), the melting point lay in the range of 140 to 142 °C.

In the case of `CCCCc1cc(=O)oc2cc(O)cc(O)c12` [Example 6-36, 4-n-butyl-5,7-dihydroxy-coumarin], in data set [1] (MABA, H37Rv), the IC50 was determined as 11.3 µg/mL (≈ 48.4 µM). In data set [1] (MABA, H37Rv, read-out: MIC90), the MIC90 came to 14.4 µg/mL (≈ 61.6 µM).

The compound `CCCc1cc(=O)oc2c(-c3cccn3C(C)C)c(O)c3c(c12)OC(C)(C)C=C3` returned a melting point of 161 to 162 °C.

Compound `CCCc1cc(=O)oc2c3c(c4c(c12)OC(C)(C)C=C4)OC(CNS(=O)(=O)c1ccc(OC)cc1)CC3=O` (stereo not shown) came in with a melting point of 108 to 109 °C.

On to `CC1CC(=O)c2c(cc(O)c3c4c(c(=O)oc23)CCCC4)O1` (stereo not shown) [Example 5a-27, benzo[1,2-b:3,4-b′]-dipyranyl-5-hydroxyl-8-methyl-3,4-cyclohexyl-2,0-dione], for which, in data set [1] (MABA, H37Rv), the IC50 was determined as 94.3 µg/mL (≈ 314 µM). Further, the MIC90 in data set [1] (MABA, H37Rv, read-out: MIC90) is above 100 µg/mL.

Consider `CCCc1cc(=O)oc2c3c(cc(O)c12)O[C@@H]1CCCC[C@@H]1C3=O` [Example 5a-19, benzo[1,2-b:3,4-b′]-dipyranyl-5-hydroxyl-8,9-cis-cyclohexyl-2,10-dione], for which the half-inhibitory concentration (IC50) in data set [1] (MABA, H37Rv) came out at 83.1 µg/mL (≈ 253 µM). Moreover, in data set [1] (MABA, H37Rv, read-out: MIC90), the MIC90 is above 100 µg/mL.

With `CC1CC(=O)c2c(cc(O)c3c(CCC(F)(F)F)cc(=O)oc23)O1` (stereo not shown) [Example 5a-71, benzo[1,2-b:3,4-b′]-dipyranyl-5-hydroxyl-8-methyl-4-((3,3′,3″-trifluoro)-n-propyl)-2,10-dione], the IC50 in data set [1] (MABA, H37Rv) was determined as 15.4 µg/mL (≈ 45.1 µM). In addition, the MIC90 in data set [1] (MABA, H37Rv, read-out: MIC90) amounted to 29.9 µg/mL (≈ 87.4 µM).

Consider `NCC[C@H](O)C(=O)N[C@@H]1C[C@H](N)[C@@H](O[C@H]2O[C@H](CN)[C@@H](O)[C@H](O)[C@H]2O)[C@H](O)[C@H]1O[C@H]1O[C@H](CO)[C@@H](O)[C@H](N)[C@H]1O` [Amikacin, reference compound], for which the MIC50 (in general, an inhibitory concentration at the 50% level, which refers to growth in some studies and to a panel of isolates in others) in data set [1] (control compound) is 0.09 µg/mL (≈ 0.154 µM). Also, the MIC90 in data set [1] (control compound, read-out: Avg MIC90) was 0.12 µg/mL (≈ 0.205 µM).

In turn, `CCCc1cc(=O)oc2c3c(c4c(c12)OCC(C)=C4)OC(C)CC3=O` (stereo not shown) came in with a melting point of 127 to 128 °C.

For `Cc1c(Cl)c(=O)oc2cc3c(c(O)c12)C(=O)CC(C)O3` (stereo not shown) [Example 5b-3, benzo[1,2-b:3,4-b′]-dipyranyl-5-hydroxyl-4,8-dimethyl-3-chloro-2,6-dione], the IC50 in data set [1] (MABA, H37Rv) turned out to be 90.5 µg/mL (≈ 307 µM). The MIC90 in data set [1] (MABA, H37Rv, read-out: MIC90) was above 100 µg/mL.

As to `CCCc1cc(=O)oc2cc3c(c(O)c12)C(=O)CC(c1ccccc1)O3` (stereo not shown) [Example 5b-16, benzo[1,2-b:3,4-b′]-dipyranyl-5-hydroxyl-8-phenyl-2,6-dione], in data set [1] (MABA, H37Rv), the IC50 amounted to 4.31 µg/mL (≈ 12.3 µM). The MIC90 in data set [1] (MABA, H37Rv, read-out: MIC90) is 5.41 µg/mL (≈ 15.4 µM); in data set [1] (setting [2]), below 10 µg/mL.

On to `CCCc1cc(=O)oc2c3c(cc(O)c12)OC(CCC)CC3=O` (stereo not shown) [Example 5a-14, benzo[1,2-b:3,4-b′]-dipyranyl-5-hydroxyl-4,8-di-n-propyl-2,10-dione], for which the IC50 in data set [1] (MABA, H37Rv) is 60.2 µg/mL (≈ 190 µM). Besides, the MIC90 in data set [1] (MABA, H37Rv, read-out: MIC90) turned out to be 85.8 µg/mL (≈ 271 µM).

As for `CC1CC(=O)c2c(c3c(c4c(-c5ccccc5)cc(=O)oc24)OC(C)(C)C=C3)O1` (stereo not shown) [Example 21], the half-maximal inhibitory concentration (IC50) in data set [1] (MABA, H37Rv) worked out at 16.6 µg/mL (≈ 42.8 µM). Besides, the MIC90 in data set [1] (MABA, H37Rv, read-out: MIC90) was above 100 µg/mL.

Take `CCCc1cc(=O)oc2c3c(cc(O)c12)OC(c1ccccc1)CC3=O` (stereo not shown) [Example 5a-16, benzo[1,2-b:3,4-b′]-dipyranyl-5-hydroxyl-8-phenyl-2,10-dione]: the IC50 in data set [1] (MABA, H37Rv) was 22.5 µg/mL (≈ 64.2 µM). The MIC90 in data set [1] (MABA, H37Rv, read-out: MIC90) amounted to 25.1 µg/mL (≈ 71.7 µM).

With `CCCc1c(Cl)c(=O)oc2c3c(cc(O)c12)OC(C)CC3=O` (stereo not shown) [Example 5a-20, benzo[1,2-b:3,4-b′]-dipyranyl-5-hydroxyl-8-methyl-3-chloro-4-n-propyl-2,10-dione], the half-maximal inhibitory concentration (IC50) in data set [1] (MABA, H37Rv) came to 26.9 µg/mL (≈ 83.5 µM). In data set [1] (MABA, H37Rv, read-out: MIC90), the MIC90 came to 42 µg/mL (≈ 130 µM).

`O=c1oc2cc(O)cc(O)c2c2c1CCC2` [Example 6-26, 3,4-cyclopentyl-5,7-dihydroxy-coumarin]: the IC50 in data set [1] (MABA, H37Rv) stood at 9.97 µg/mL (≈ 45.7 µM). Moreover, the MIC90 in data set [1] (MABA, H37Rv, read-out: MIC90) was 24.4 µg/mL (≈ 112 µM).

Take `Cc1c(Cc2ccccc2)c(=O)oc2c3c(c4c(c12)OC(C)(C)C=C4)OC(C)CC3=O` (stereo not shown) [Example 4]: the IC50 in data set [1] (MABA, H37Rv) was found to be 7.52 µg/mL (≈ 18 µM). For the same compound, the MIC90 in data set [1] (MABA, H37Rv, read-out: MIC90) was above 100 µg/mL.

Regarding `CCCc1cc(=O)oc2c1c(O)cc1occc(=O)c12` [Example 5a-13, 5-hydroxyl-4-n-propyl-benzo[2,3-f]-pyranyl-2,10-dione], the IC50 in data set [1] (MABA, H37Rv) stood at 46.7 µg/mL (≈ 172 µM). Moreover, in data set [1] (MABA, H37Rv, read-out: MIC90), the MIC90 worked out at 53.4 µg/mL (≈ 196 µM).

Take `Cc1c(Cl)c(=O)oc2c3c(c4c(c12)OC(C)(C)C=C4)OC(C)CC3=O` (stereo not shown) [Example 3]: the IC50 in data set [1] (MABA, H37Rv) was found to be 33.4 µg/mL (≈ 92.5 µM). In addition, in data set [1] (MABA, H37Rv, read-out: MIC90), the MIC90 is above 100 µg/mL.

Turning to `CCCCCC1CC(=O)c2c(cc(O)c3c(CCC)cc(=O)oc23)O1` (stereo not shown) [Example 5a-15], the IC50 in data set [1] (MABA, H37Rv) amounted to 66 µg/mL (≈ 192 µM). Moreover, in data set [1] (MABA, H37Rv, read-out: MIC90), the MIC90 was above 100 µg/mL.

As for `CCCc1cc(=O)oc2cc3c(c(O)c12)C(=O)CC(C)O3` (stereo not shown) [Example 5b-11, benzo[1,2-b:3,4-b′]-dipyranyl-5-hydroxyl-4-n-propyl-8-methyl-2,6-dione], in data set [1] (MABA, H37Rv), the IC50 was 95.3 µg/mL (≈ 330 µM). In addition, in data set [1] (MABA, H37Rv, read-out: MIC90), the MIC90 is above 100 µg/mL.

Regarding `CCCc1cc(=O)oc2cc3c(c(O)c12)C(=O)CC(CCC)O3` (stereo not shown) [Example 5b-14, benzo[1,2-b:3,4-b′]-dipyranyl-5-hydroxyl-4,8-di-n-propyl-2,6-dione], in data set [1] (MABA, H37Rv), the half-maximal inhibitory concentration (IC50) turned out to be 6.59 µg/mL (≈ 20.8 µM). Moreover, the MIC90 in data set [1] (MABA, H37Rv, read-out: MIC90) was above 100 µg/mL.

As for `O=c1cc(CCC(F)(F)F)c2c(O)cc(O)cc2o1` [Example 6-71, 4-(3,3′,3″-trifluoro)-n-propyl-5,7-dihydroxy-coumarin], the 50% inhibitory concentration (IC50) in data set [1] (MABA, H37Rv) is 2.53 µg/mL (≈ 9.21 µM). The MIC90 in data set [1] (MABA, H37Rv, read-out: MIC90) was 4.06 µg/mL (≈ 14.8 µM); in data set [1] (setting [2]), below 10 µg/mL.
